Measurements as given in patent publication US12538701B2, “Compound and organic light emitting device comprising the same” (LG Chem, Ltd., priority 2020, dated 2026).

Assay: Solubility experiment in cyclohexanone
Assay type: physicochemical
Conditions: normal temperature/pressure, whether 0.1 wt % or more was dissolved
Protocol: In order to confirm the solubility in the solvent used in the solution process of the compounds prepared in the Preparation Examples and the comparative compounds, each of them was dissolved in the solvent cyclohexanone (CHON) under normal temperature/pressure conditions, and it was confirmed whether 0.1 wt % or more was dissolved.
For `c1ccc(N(c2ccc3cc(-c4cc5ccccc5o4)ccc3c2)c2ccc3c(ccc4c5c(ccc6c7ccc8cc(N(c9ccccc9)c9ccc%10cc(-c%11cc%12ccccc%12o%11)ccc%10c9)ccc8c7n(-c7ccccc7)c65)n(-c5ccccc5)c34)c2)cc1` [Compound 11], the “Solubility, Solvent CHON” value was “◯ (0.1 wt. % or more soluble)”.
For `Cc1cccc(N(c2ccc3c(ccc4c5cc6c(cc5n(-c5ccccc5)c34)c3ccc4cc(N(c5cccc(C)c5)c5cccc7c5oc5ccccc57)ccc4c3n6-c3ccccc3)c2)c2cccc3c2oc2ccccc23)c1` [Compound 3], the “Solubility, Solvent CHON” value was “◯ (0.1 wt. % or more soluble)”.
In the case of `c1ccc(N(c2ccc3cc(-c4cc5ccccc5o4)ccc3c2)c2ccc3c(ccc4c5c6c7ccc8cc(N(c9ccccc9)c9ccc%10cc(-c%11cc%12ccccc%12o%11)ccc%10c9)ccc8c7n(-c7ccccc7)c6ccc5n(-c5ccccc5)c34)c2)cc1` [Compound 14], the “Solubility, Solvent CHON” value is reported as “◯ (0.1 wt. % or more soluble)”.
In the case of `c1ccc(N(c2ccc3cc(-c4cc5ccccc5o4)ccc3c2)c2ccc3c(ccc4c5ccc6c7ccc8cc(N(c9ccccc9)c9ccc%10cc(-c%11cc%12ccccc%12o%11)ccc%10c9)ccc8c7n(-c7ccccc7)c6c5n(-c5ccccc5)c34)c2)cc1` [Compound 15], the “Solubility, Solvent CHON” value is reported as “◯ (0.1 wt. % or more soluble)”.
For `CC1(C)c2cc(-c3cc4ccccc4o3)ccc2-c2ccc(N(c3ccccc3)c3ccc4c5c6ccc7c(c6ccc5n(-c5ccccc5)c4c3)c3ccc(N(c4ccccc4)c4ccc5c(c4)C(C)(C)c4cc(-c6cc8ccccc8o6)ccc4-5)cc3n7-c3ccccc3)cc21` [Comparative Compound I, reference compound], the “Solubility, Solvent CHON” value was “X (0.1 wt. % or more insoluble)”.
With `Cc1cccc(N(c2ccc3c(ccc4c5c6c7ccc8cc(N(c9cccc(C)c9)c9cccc%10c9oc9ccccc9%10)ccc8c7n(-c7ccccc7)c6ccc5n(-c5ccccc5)c34)c2)c2cccc3c2oc2ccccc23)c1` [Compound 4] the “Solubility, Solvent CHON” value was “◯ (0.1 wt. % or more soluble)”.
For `c1ccc(-n2c3ccccc3c3cc(-c4ccc(N(c5ccc6ccccc6c5)c5ccc6c(ccc7c8ccc9c%10ccc%11cc(N(c%12ccc(-c%13ccc%14c(c%13)c%13ccccc%13n%14-c%13ccccc%13)cc%12)c%12ccc%13ccccc%13c%12)ccc%11c%10n(-c%10ccccc%10)c9c8n(-c8ccccc8)c67)c5)cc4)ccc32)cc1` [Compound 10], the “Solubility, Solvent CHON” value was “◯ (0.1 wt. % or more soluble)”.
In the case of `Cc1cccc(N(c2ccc3c(ccc4c5cc6c7ccc8cc(N(c9cccc(C)c9)c9cccc%10c9oc9ccccc9%10)ccc8c7n(-c7ccccc7)c6cc5n(-c5ccccc5)c34)c2)c2cccc3c2oc2ccccc23)c1` [Compound 2], the “Solubility, Solvent CHON” value is reported as “◯ (0.1 wt. % or more soluble)”.
With `CC(C)(C)c1ccc(N(c2ccc3cc(-c4cc5ccccc5o4)ccc3c2)c2ccc3c(ccc4c5cc6c(cc5n(-c5ccc(C(C)(C)C)cc5)c34)c3ccc4cc(N(c5ccc(C(C)(C)C)cc5)c5ccc7cc(-c8cc9ccccc9o8)ccc7c5)ccc4c3n6-c3ccc(C(C)(C)C)cc3)c2)cc1` [Compound 18] the “Solubility, Solvent CHON” value was “◯ (0.1 wt. % or more soluble)”.
In the case of `CC1(C)c2ccccc2-c2ccc(-n3c4cc5c6ccc7cc(N(c8ccccc8)c8ccc9cc(-c%10cc%11ccccc%11o%10)ccc9c8)ccc7c6n(-c6ccc7c(c6)C(C)(C)c6ccccc6-7)c5cc4c4ccc5cc(N(c6ccccc6)c6ccc7cc(-c8cc9ccccc9o8)ccc7c6)ccc5c43)cc21` [Compound 16], the “Solubility, Solvent CHON” value is reported as “◯ (0.1 wt. % or more soluble)”.
For `c1ccc(-n2c3ccccc3c3cc(-c4ccc(N(c5ccc6ccccc6c5)c5ccc6c(ccc7c8cc9c%10ccc%11cc(N(c%12ccc(-c%13ccc%14c(c%13)c%13ccccc%13n%14-c%13ccccc%13)cc%12)c%12ccc%13ccccc%13c%12)ccc%11c%10n(-c%10ccccc%10)c9cc8n(-c8ccccc8)c67)c5)cc4)ccc32)cc1` [Compound 7], the “Solubility, Solvent CHON” value was “◯ (0.1 wt. % or more soluble)”.
For `[2H]c1c([2H])c([2H])c(-n2c3cc4c5ccc6cc(N(c7ccccc7)c7ccc8cc(-c9cc%10ccccc%10o9)ccc8c7)ccc6c5n(-c5c([2H])c([2H])c([2H])c([2H])c5[2H])c4cc3c3ccc4cc(N(c5ccccc5)c5ccc6cc(-c7cc8ccccc8o7)ccc6c5)ccc4c32)c([2H])c1[2H]` [Compound 17], the “Solubility, Solvent CHON” value was “◯ (0.1 wt. % or more soluble)”.
In the case of `Cc1cccc(N(c2ccc3c(ccc4c5c(ccc6c7ccc8cc(N(c9cccc(C)c9)c9cccc%10c9oc9ccccc9%10)ccc8c7n(-c7ccccc7)c65)n(-c5ccccc5)c34)c2)c2cccc3c2oc2ccccc23)c1` [Compound 1], the “Solubility, Solvent CHON” value is reported as “◯ (0.1 wt. % or more soluble)”.
For `c1ccc(N(c2ccc3cc(-c4cc5ccccc5o4)ccc3c2)c2ccc3c(ccc4c5cc6c7ccc8cc(N(c9ccccc9)c9ccc%10cc(-c%11cc%12ccccc%12o%11)ccc%10c9)ccc8c7n(-c7ccccc7)c6cc5n(-c5ccccc5)c34)c2)cc1` [Compound 12], the “Solubility, Solvent CHON” value was “◯ (0.1 wt. % or more soluble)”.
For `c1ccc(-n2c3ccccc3c3cc(-c4ccc(N(c5ccc6ccccc6c5)c5ccc6c(ccc7c8c(ccc9c%10ccc%11cc(N(c%12ccc(-c%13ccc%14c(c%13)c%13ccccc%13n%14-c%13ccccc%13)cc%12)c%12ccc%13ccccc%13c%12)ccc%11c%10n(-c%10ccccc%10)c98)n(-c8ccccc8)c67)c5)cc4)ccc32)cc1` [Compound 6], the “Solubility, Solvent CHON” value was “◯ (0.1 wt. % or more soluble)”.
With `c1ccc(-n2c3ccccc3c3cc(-c4ccc(N(c5ccc6ccccc6c5)c5ccc6c(ccc7c8cc9c(cc8n(-c8ccccc8)c67)c6ccc7cc(N(c8ccc(-c%10ccc%11c(c%10)c%10ccccc%10n%11-c%10ccccc%10)cc8)c8ccc%10ccccc%10c8)ccc7c6n9-c6ccccc6)c5)cc4)ccc32)cc1` [Compound 8] the “Solubility, Solvent CHON” value was “◯ (0.1 wt. % or more soluble)”.
For `c1ccc(N(c2ccc3cc(-c4cc5ccccc5o4)ccc3c2)c2ccc3c(ccc4c5cc6c(cc5n(-c5ccccc5)c34)c3ccc4cc(N(c5ccccc5)c5ccc7cc(-c8cc9ccccc9o8)ccc7c5)ccc4c3n6-c3ccccc3)c2)cc1` [Compound 13], the “Solubility, Solvent CHON” value was “◯ (0.1 wt. % or more soluble)”.
With `Cc1cccc(N(c2ccc3c(ccc4c5ccc6c7ccc8cc(N(c9cccc(C)c9)c9cccc%10c9oc9ccccc9%10)ccc8c7n(-c7ccccc7)c6c5n(-c5ccccc5)c34)c2)c2cccc3c2oc2ccccc23)c1` [Compound 5] the “Solubility, Solvent CHON” value was “◯ (0.1 wt. % or more soluble)”.
In the case of `c1ccc(-n2c3ccccc3c3cc(-c4ccc(N(c5ccc6ccccc6c5)c5ccc6c(ccc7c8c9c%10ccc%11cc(N(c%12ccc(-c%13ccc%14c(c%13)c%13ccccc%13n%14-c%13ccccc%13)cc%12)c%12ccc%13ccccc%13c%12)ccc%11c%10n(-c%10ccccc%10)c9ccc8n(-c8ccccc8)c67)c5)cc4)ccc32)cc1` [Compound 9], the “Solubility, Solvent CHON” value is reported as “◯ (0.1 wt. % or more soluble)”.
